From ChEMBL document CHEMBL1157539, “Thousands of chemical starting points for antimalarial lead identification” (Nature, 2010)

System: Plasmodium falciparum
Test: GSK_TCMDC: Inhibition of Plasmodium falciparum 3D7 in whole erythrocytes, using parasite LDH activity as an index of growth.
Type: functional, organism-based
Details: Plasmodium falciparum, 3D7

Row | Structure (SMILES) | XC50
1 | CCN(CC)CCN(Cc1ccc(-c2ccc(C(F)(F)F)s2)cc1)C(=O)Cn1c(CCc2cccc(F)c2F)nc(=O)c2ccccc21 | 994 nM
2 | Cc1cc(=NN=Cc2ccccc2)c2cc(C(F)(F)F)ccc2[nH]1 | 153 nM
3 | CN(C)C=Nc1ccc(OCCCCCCOc2ccc(N=CN(C)C)cc2)cc1 | 132 nM
4 | c1cnc2ccc(NCc3ccc(-c4ccc(CNC5CCCC5)cc4)cc3)cc2c1 | 874 nM
5 | FC(F)(F)c1ccc2[nH]ccc(=NN=Cc3ccccc3Cl)c2c1 | 799 nM
6 | Fc1cccc(COc2ccc(-n3ccc4c(NCCCn5ccnc5)ncnc43)cc2Cl)n1 | 1030 nM
7 | N#Cc1cc(C(=O)c2cc(Cl)ccc2O)cn(-c2cccc(C(F)(F)F)c2)c1=O | 1130 nM
8 | Cc1ncc([N+](=O)[O-])n1CCOC(=O)NC(Nc1ccc(Br)cc1)C(Cl)(Cl)Cl (stereo unspecified) | 962 nM
9 | CC(=O)Nc1ccc(S(=O)(=O)Nc2ccc(Nc3nc(C)cc(N(C)C)n3)cc2)cc1 | 1160 nM
10 | CCN(CCNC(=O)Cn1c(C)cc2cc([N+](=O)[O-])ccc21)c1cccc(C)c1 | 1010 nM
11 | O=C(CC1CCCC1)N(Cc1ccc(-c2ccc(CNC3Cc4ccccc4C3)cc2)cc1)CC1CCCCN1 (stereo unspecified) | 1060 nM
12 | CC(C)CCNc1nc2ccccc2nc1Nc1cccc(C(F)(F)F)c1 | 905 nM
13 | CCn1c2c(c(=N)c3ccccc31)CCC2 | 505 nM
14 | O=C(Nc1ccc(Br)c(C(F)(F)F)c1)c1cccc([N+](=O)[O-])c1 | 914 nM
15 | COc1ccc2ncc(F)c([C@H](O)CN3CCC(NCc4ccc5c(c4)OCCO5)CC3)c2c1 | 152 nM
16 | Cn1cnc(CCNC(=O)c2ccc(-c3cccc(-c4nc5cc(F)ccc5[nH]4)c3)cc2)c1 | 680 nM
17 | O=[N+]([O-])c1ccc(-n2nc(-c3cccnc3)n(Cc3ccco3)c2=S)c(Cl)c1 | 200 nM
18 | Cc1cc(N/N=C/c2ccccc2[N+](=O)[O-])c2cc(F)ccc2n1 | 665 nM
19 | CS(=O)(=O)Nc1cccc(-c2cnc3[nH]cc(-c4ccc(C(=O)O)c(F)c4)c3c2)c1 | 834 nM
20 | COc1ccc2[nH]ccc(=NN=CC=Cc3ccccc3)c2c1 | 743 nM
21 | CCCCCCCN1CC[C@@H](CCCc2ccnc3ccc(OCCN4CCOCC4)cc23)[C@@H](CC)C1 | 909 nM
22 | Cc1cc(N2CCN(CC3CCCCC3)CC2)nc(Nc2ccc(Br)cc2)n1 | 1090 nM
23 | CCN(CC)CCN(Cc1ccc(-c2ccc(C(F)(F)F)cc2)cc1)C(=O)Cn1c(CCc2ccc(F)c(F)c2F)nc(=O)c2cccnc21 | 1130 nM
24 | CCCCCCCN(Cc1ccc(OC(C)(C)C(=O)OCC)cc1)C(=O)Nc1ccccc1OC(F)(F)F | 966 nM

Row | Structure (SMILES) | XC50
25 | CCCCCN1C(=O)N(c2ccc(Cl)c(Cl)c2)C(N(O)C(=O)Nc2ccc(Cl)c(Cl)c2)C1(C)C (stereo unspecified) | 545 nM
26 | Cn1nccc1C(=O)NCCNCc1cccc(-c2ccc(-c3nc4ccccc4[nH]3)cc2)c1 | 473 nM
27 | O=C(NCC(NCCCNc1cc(=O)c2ccccc2[nH]1)c1cc(Br)cc(Br)c1)C1=CCCC1 (stereo unspecified) | 901 nM
28 | CC(=O)Nc1cccc(-c2cnc(N)c3cc(-c4ccc5c(c4)OCO5)ccc23)c1 | 491 nM
29 | CN1CCCC(CN2CCN(Cc3cccc(-c4ccc(-c5nc6ccccc6[nH]5)s4)c3)CC2)C1 (stereo unspecified) | 149 nM
30 | O=C1c2ccc([N+](=O)[O-])cc2C(=O)N1c1ccc2[nH]ncc2c1 | 1150 nM
31 | COc1cc2c(cc1OCCN1CCC(N3CCCC3)CC1)N(C(=O)/C=C/c1ccccc1Cl)CC2 | 659 nM
32 | Cc1cc(CN2CC[C@H](NC(=O)c3ccc(Cl)c(Cl)c3)C2)ccc1OCCCN(C)C | 842 nM
33 | C[C@@H](C(N)=O)N1CCCCC1c1ccc(OCc2cccc(F)c2)cc1 (stereo partly specified) | 989 nM
34 | CC(C)(C)c1nn(-c2ccccc2)c2[nH]c(=O)c(CNC3CCCC3)cc12 | 850 nM
35 | COc1cc2ncnc(Nc3ccc(OCc4ccccc4)c(I)c3)c2cc1OC | 712 nM
36 | O=C(/C=C/c1ccccc1Cl)NC1CCC(CN2C3CCC2CC(c2c[nH]c4ccccc24)C3)CC1 (stereo unspecified) | 706 nM
37 | O=C(Nc1ccc(Cl)cc1)Nc1ccc(-c2csc(-c3nc4ccccc4[nH]3)c2)cc1 | 799 nM
38 | COc1cc(NC(=O)c2ccc(-c3ccc(C(C)=O)cc3)s2)ccc1OCCN1CCCC1 | 147 nM
39 | C/C=C1\CN2CC[C@H]1C[C@@H]2[C@@H](O)c1ccnc2ccc(O)cc12 | 245 nM
40 | FC(F)(F)c1ccc(N2CCCN(Cc3cccc(-c4ccccc4CNCc4ccc5c(c4)OCO5)c3)CC2)nc1 | 1190 nM
41 | O=[N+]([O-])c1ccc(N/C(=N\c2ccccc2Br)NCCOc2ccccc2)c(O)c1 | 1050 nM
42 | CCOc1ccc2[nH]c(C)cc(=NN=Cc3cccc(F)c3)c2c1 | 736 nM
43 | OCCN1CCN(C2Cc3ccc(F)cc3Sc3ccc(Cl)cc32)CC1 (stereo unspecified) | 876 nM
44 | CC(C)(C)Nc1cc(C2CC2)nc(-c2ccccn2)n1 | 679 nM
45 | Cn1cc(C2CCN(CCCCNC(=O)c3sc(-c4ccc(C(F)(F)F)cc4)nc3CO)CC2)c2ccccc21 | 1060 nM
46 | C=CCn1c(Cc2ccccc2)nnc1Sc1ccc(C#N)c([N+](=O)[O-])c1 | 1030 nM
47 | O=S(=O)(NCCN1CCCC1)c1cccc(-c2cccc(CNCc3ccsc3)c2)c1 | 872 nM
48 | CN(c1ccc2c(c1)nc(NCc1ccccc1)n2C)c1ccnc(Nc2ccc(CS(C)(=O)=O)cc2)n1 | 841 nM

Row | Structure (SMILES) | XC50
49 | CC(C)Nc1cc(C(=O)N[C@@H](Cc2ccccc2)[C@H](O)CNC(C)(C)c2cccc(C(F)(F)F)c2)cc(N2CCCCS2(=O)=O)c1 | 79.4 nM
50 | COc1ccc(CCNCCCCCNCCCc2ccc(Cl)cc2)cc1OC | 808 nM
51 | N#Cc1cccc(C(=O)NC2CCN(c3ccnc(Nc4ccc(F)cc4)n3)C2)c1 (stereo unspecified) | 396 nM
52 | CCN(CC)C(=S)N/N=C1/C(=O)Nc2c(C)cccc21 | 863 nM
53 | O=C(NC1CCN(CC2(c3ccccc3)CCCC2)CC1)c1n[nH]cc1Cl | 1040 nM
54 | COc1cc(N(Cc2ccccc2C)S(=O)(=O)Cc2ccccc2[N+](=O)[O-])c(OC)cc1Cl | 1010 nM
55 | Cc1ccc(C(=O)Nc2ccc(C)c(OC3CCN(Cc4ccco4)C3)c2)cc1 (stereo unspecified) | 966 nM
56 | CC[C@H]1CN2CC[C@@H]1C[C@H]2[C@H](O)c1ccnc2ccc(Cl)cc12 | 119 nM
57 | CCc1cn2c3c(cc(C(=O)N[C@@H](Cc4ccccc4)[C@H](O)CNC4CCC4)cc13)N(C)S(=O)(=O)CC2 | 99 nM
58 | CN(C)CCOc1cc(NC(=O)Nc2cccc([N+](=O)[O-])c2)ccc1I | 743 nM
59 | O=C(NCCCCN1CC=C(c2ccc3c(c2OCc2ccccc2)CCCC3)CC1)c1ccc(-c2ccc(C(F)(F)F)cc2)cc1 | 296 nM
60 | CC(C)(C)c1ccc(NC(=O)c2cccc(CN3CCCN(CC4CCCCC4)CC3)c2)cc1 | 737 nM
61 | COc1cc(C(=O)N2CCOC(CCN3CCC[C@H]3C(=O)Nc3ccccc3)(c3ccc(Cl)c(Cl)c3)C2)cc(OC)c1OC (stereo partly specified) | 733 nM
62 | Oc1ccc(Cl)cc1CN1CCC(CCOC(c2ccccc2)c2ccc(Cl)cc2)CC1 (stereo unspecified) | 390 nM
63 | O=C(/C=C/c1ccccc1)N1CCOC(CCN2CCC(c3ccccc3)CC2)(c2ccc(Cl)c(Cl)c2)C1 (stereo unspecified) | 516 nM
64 | CC(=O)N(C)c1cccc(C(=O)Nc2cccc(-c3cccc(-c4nc5cc(C(F)(F)F)ccc5[nH]4)c3)c2)c1 | 236 nM
65 | CCCCN(CCCC)C(=O)CC(O)c1cc2c(Cl)cc(Cl)cc2c2cc(C(F)(F)F)ccc12 (stereo unspecified) | 1210 nM
66 | CN(Cc1ccc(-c2ccc(C(F)(F)F)cc2)cc1)C(=O)Cn1c(CCc2cccc(F)c2F)cc(=O)c2ccc(OCCCN3CCCCC3)cc21 | 706 nM
67 | Fc1cccc(COc2ccc(Nc3ncnc4sc(C#CC5CCCCN5)cc34)cc2Cl)c1 (stereo unspecified) | 540 nM
68 | COc1c(C=NNc2nc(=Nc3ccccc3)[nH]c(=Nc3ccccc3)[nH]2)ccc(Br)c1O | 720 nM
69 | O=C(Nc1ccc(CN2CCOCC2)cc1)c1ccc(-c2cc(Cl)ccc2Cl)o1 | 613 nM
70 | CCN(CC)CCCC(C)Nc1c2ccccc2nc2ccc3ccccc3c12 (stereo unspecified) | 1040 nM
71 | O=C(NCCN1CCCC1)c1cccc(Nc2nccc(Nc3ccc(Oc4ccccc4)cc3)n2)c1 | 654 nM
72 | N=C(N)NN=Cc1c2ccccc2c(Cl)c2ccc(Cl)cc12 | 225 nM

Row | Structure (SMILES) | XC50
73 | CCC1(C)N=C(N)N=C(N)N1c1ccc(Cl)cc1 (stereo unspecified) | 159 nM
74 | CC(C)(C)C(=O)Nc1ccc(N2CCN(C(c3ccccc3)c3ccccc3)CC2)c(Cl)c1 | 662 nM
75 | Cc1ncsc1CCN1C(=O)CC2(C1=O)C(=O)N(Cc1ccccc1)c1ccc(Cl)cc12 (stereo unspecified) | 984 nM
76 | CN(C(=O)Nc1ccc(C(F)(F)F)cc1)C1CCN(CCCCCNC(=O)/C=C/c2ccc(Cl)c(Cl)c2)CC1 | 330 nM
77 | CN1C(C)(C)CC(NC(=O)c2ccc(-c3nc4cc(Cl)c(Cl)cc4[nH]3)cc2)CC1(C)C | 730 nM
78 | CC1CC(NCCCNc2cc(=O)c3ccccc3[nH]2)c2c(Cl)c(Cl)cc(Cl)c21 (stereo unspecified) | 981 nM
79 | Cc1cc(=O)c(-c2ccc(Oc3cccc(Cl)c3)cc2)c(C)[nH]1 | 602 nM
80 | CN(C)c1cc(C(=O)N[C@@H](Cc2ccccc2)[C@H](O)CNC2CCCCC2)cc2[nH]ccc12 | 1070 nM
81 | CN(c1ncc(-c2cccc(CNCc3ccccc3O)c2)cn1)C1CCCCC1 | 822 nM
82 | c1ccc(-c2ccc(CNCCCNc3nc4ccccc4[nH]3)cc2)cc1 | 783 nM
83 | COc1ccc(-c2cc(C(=O)N3CCc4ccccc43)c3ccccc3n2)cc1OC | 327 nM
84 | COc1ccc(CNCc2ccccc2)cc1-c1ccc(OC)c(S(=O)(=O)NCCN2CCCC2)c1 | 827 nM
85 | CCCc1ccc(NC(=O)c2ccc(CN3CCCN(CC4CCCCC4)CC3)cc2)cc1 | 524 nM
86 | CN(C)CCN1CCN(Cc2cccc(-c3csc(-c4nc5ccccc5[nH]4)c3)c2)CC1 | 398 nM
87 | Cc1cccc2nc(-c3ccc(-c4cccc(NC(=O)NCc5ccccc5)c4)cc3)[nH]c12 | 777 nM
88 | NCc1cccc(-c2cccc(CNC3CCN(Cc4ccccc4)CC3)c2)c1 | 719 nM
89 | O=C(NC1CCCCC1)c1ccc(O)c(-c2cccc(C(F)(F)F)c2)c1 | 712 nM
90 | CCSc1ccccc1COc1c(C)nc(N)nc1N | 68.4 nM
91 | COc1ccc2c(NN=Cc3ccccc3F)ccnc2c1 | 213 nM
92 | COc1cccc(-c2[nH]c3ccccc3c2CN2CCC(c3c(C)cccc3C)CC2)c1 | 1020 nM
93 | Cn1c(C2CC3CCC(C2)N3CC2CCC(NC(=O)/C=C/c3ccc(Cl)c(Cl)c3)CC2)nc2ccccc21 (stereo unspecified) | 563 nM
94 | Cn1c(N)cc(-c2ccc(Br)cc2)c2c(=O)nc(N)nc1-2 | 1130 nM
95 | CCCCCC(C)C(C)c1cc(O)c2c(c1)OC(C)(C)C=C2c1cc[n+]([O-])cc1 (stereo unspecified) | 1190 nM
96 | Fc1ccc2[nH]c(-c3ccc(-c4ccc(CN5CCCCC5)cc4)s3)nc2c1 | 602 nM
